Source: paper PMC9973015 (mBio, 2023)
pEC50, pIC50: −log10 of the molar value.

How the values were obtained:
SARS-CoV-2 WT-USA-WA1 = test: microbe, parasite or virus in culture; type: cell-based; conditions: Severe acute respiratory syndrome coronavirus 2, Vero C1008, read-out: SARS-CoV-2 WT-USA-WA1 EC50
human cathepsin L = human cathepsin L (Homo sapiens, UniProt P07711); test: biochemical
SARS-CoV-2 WT-GHB-03021 = test: microbe, parasite or virus in culture; type: cell-based; conditions: Severe acute respiratory syndrome coronavirus 2, Vero C1008, read-out: SARS-CoV-2 WT-GHB-03021 EC50
in vitro = conditions: African green monkey

Chain of human cathepsin L (P07711 114-333): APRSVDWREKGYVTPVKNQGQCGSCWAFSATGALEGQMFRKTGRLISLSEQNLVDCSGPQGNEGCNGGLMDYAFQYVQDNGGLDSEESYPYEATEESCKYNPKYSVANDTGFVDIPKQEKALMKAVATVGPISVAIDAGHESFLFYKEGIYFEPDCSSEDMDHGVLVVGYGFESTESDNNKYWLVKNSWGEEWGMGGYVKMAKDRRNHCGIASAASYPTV

Structure (SMILES): COc1cccc2[nH]c(C(=O)N3C[C@@H]4CCC[C@@H]4[C@H]3C(=O)N[C@@H](C[C@@H]3CCCNC3=O)C(=O)CO)cc12 [ALG-097161, (1S,3aR,6aS)-N-((S)-4-Hydroxy-3-oxo-1-((S)-2-oxopiperidin-3-yl)butan-2-yl)-2-(4-methoxy-1H-indole-2-carbonyl)octahydrocyclopenta[c]pyrrole-1-carboxamide]
- pEC50 (SARS-CoV-2 WT-USA-WA1): 6.22
- pIC50 (human cathepsin L): < 5.00
- pEC50 (SARS-CoV-2 WT-GHB-03021): 6.23
- CC50 (in vitro): > 10000 nM
- effect on the viability of uninfected host cells (VeroE6 cells): no effect

Structure (SMILES): Cn1cnc(Cn2c(=O)[nH]/c(=N\c3cc4cn(C)nc4cc3Cl)n(Cc3cc(F)c(F)cc3F)c2=O)n1 [Ensitrelvir, ensitrelvir]
- pEC50 (SARS-CoV-2 WT-USA-WA1): 6.68
- pIC50 (human cathepsin L): < 5.00

Structure (SMILES): CC(C)(C)[C@H](NC(=O)C(F)(F)F)C(=O)N1C[C@H]2[C@@H]([C@H]1C(=O)N[C@H](C#N)C[C@@H]1CCNC1=O)C2(C)C [Nirmatrelvir, nirmatrelvir]
- pEC50 (SARS-CoV-2 WT-USA-WA1): 6.96
- pEC50 (SARS-CoV-2 WT-GHB-03021): 6.92
- CC50 (in vitro): > 10000 nM

Structure (SMILES): COc1cccc2[nH]c(C(=O)N[C@@H](CC(C)C)C(=O)N[C@@H](C[C@@H]3CCNC3=O)C(=O)CO)cc12 [PF-00835231]
- pIC50 (human cathepsin L): 6.89
- pEC50 (SARS-CoV-2 WT-GHB-03021): 6.72
- CC50 (in vitro): > 10000 nM
